Reference: US8518965B2, “Compositions and methods for treating cancer” (Trustees of Dartmouth College, priority 2009, dated 2013)
Read-outs that look alike come from different tables or passages of the source. Marks after values point to notes of the source that are not given here.

What was measured:
[1] = tested on: SF 295 human glioblastoma cells; assay: Colony formation assay, SF 295 cells; type: cell-based; settings: for IC50: Homo sapiens, SF 295 cells, 72 hours with compound, colonies counted after 10 days (Example 10), read-out: IC50; for Killing / inhibition of the growth of SF 295 human glioblastoma cells (in words): Example 10
Description: (§1) NCI/ADR-RES human breast cancer cells (500 cells), HCT116 human colon cancer cells (400 cells) or SF 295 human glioblastoma cells (1000 cells) were plated in 60 mm Petri dishes containing 2.7 ml of medium (modified McCoy's 5a medium containing 10% fetal bovine serum and 100 units/ml penicillin and 100 μg/ml streptomycin). The cells were incubated in a CO2 incubator at 37° C. for 5 hours for attachment to the bottom of Petri dishes. Compounds were prepared fresh in medium at ten times the final concentration, and then 0.3 ml of this stock solution was added to the 2.7 ml of medium in the dish. The cells were then incubated with compounds for 72 hours at 37° C. At the end of incubation, the compound-containing media were decanted, the dishes were rinsed with 4 ml of Hank's Balance Salt Solution (HBSS), 5 ml of fresh medium was added, and the dishes were returned to the incubator for colony formation. The cell colonies were counted using a colony counter after incubation for 14 days for NCI/ADR-RES cells and 10 days for HCT116 cells and SF 295 cells. Cell survival was calculated and the IC50 values (the drug concentration producing 50% inhibition of colony formation) were determined for each tested compound.
One thousand SF 295 cells were plated in 60 mm Petri dishes containing 2.7 ml of medium (modified McCoy's 5a medium containing 10% fetal bovine serum and 100 units/ml penicillin and 100 μg/ml streptomycin). The cells were incubated in a CO2 incubator at 37° C. for 5 hours for attachment to the bottom of Petri dishes. Compounds were prepared fresh in medium at ten times the final concentration, and then 0.3 ml of this stock solution was added to the 2.7 ml of medium in the dish. The cells were then incubated with the compounds for 72 hours at 37° C. At the end of incubation, the compound-containing media were decanted, the dishes were rinsed with 4 ml of Hank's Balance Salt Solution (HBSS), 5 ml of fresh medium was added, and the dishes were returned to the incubator for colony formation. After incubation for 10 days, the cell colonies were counted using a colony counter. Cell survival was calculated and the values of IC50 were determined for each compound tested.

normal C3H/HeN mice = assay: Maximum tolerated dose (MTD40) in normal mice; settings: suspension formulation, single intraperitoneal injection, 40 days
Description: The MTD40 (maximum tolerated dose at day 40) values were determined on normal C3H/HeN mice using standard procedures. […] The result of this exercise was two dosages, one apparently nonlethal and the other lethal, if severe and irreversible toxicity occurred and euthanasia was required. Six mice were dosed at each dosage. If no severe and irreversible toxicity occurred at the lower dosage and at least one with severe and irreversible toxicity at the higher dose, then the lower dose was considered to be the MTD.
Compounds were administered to C3H/HeN mice by intraperitoneal injection (5% alcohol, 5% CREMOPHOR® EL, and 90% saline, 0.5 ml/20 gram, single injection). Drug toxicity was evaluated on mice checked daily for 40 days. The toxicity parameters reported were the MTD40. […] At the end of experiment, all mice were euthanized.
The toxicity parameters reported were the MTD40. At the end of experiment, all mice will be euthanized.

[2] = tested on: HCT116 human colon cancer cells; assay: Colony formation assay, HCT116 cells; type: cell-based; settings: 72 hours with compound, colonies counted after 24 days (Example 9), read-out: IC50
Description: as §1
Four hundred HCT116 cells were plated in 60 mm Petri dishes containing 2.7 ml of medium (modified McCoy's 5a medium containing 10% fetal bovine serum and 100 units/ml penicillin and 100 μg/ml streptomycin). The cells were incubated in a CO2 incubator at 37° C. for 5 hours for attachment to the bottom of Petri dishes. Compounds were prepared fresh in medium at ten times the final concentration, and then 0.3 ml of this stock solution was added to the 2.7 ml of medium in the dish. The cells were then incubated with drugs for 72 hours at 37° C. At the end of incubation the compound-containing media were decanted, the dishes were rinsed with 4 ml of Hank's Balance Salt Solution (HBSS), 5 ml of fresh medium was added, and the dishes were returned to the incubator for colony formation. HCT116 cell colonies were counted using a colony counter after […] of incubation. Cell survival was calculated and IC50 values were determined for each compound tested.

[3] = Solubility in solvents and buffers; type: physicochemical
Description: Characterization of D11B. The solubility of D11B in different solvents was analyzed (Table 1).
(§2) The solubility of D11B in various combinations of solvents was also analyzed. […] For the analysis of co-solvents, stock solutions were prepared by dissolving D11B in a corresponding solvent. Stock solutions of D11B in dimethylsulfoxide (DMSO) were prepared at 25° C., and stock solutions of D11B in PEG-400, CREMOPHOR® EL and Polysorbate 80 were prepared at 100° C. Injection solutions, in water (0.3 mg/ml), were prepared by dropwise addition of the stock solution to a required volume of vigorously stirred hot water (80° C.).
The solubility of D11B×2AH in DMSO, PEG-400, EtOH, and buffer was determined (Table 7).

[4] = State of stock and injection solutions in water + co-solvents; type: physicochemical
Description: as §2
Additional solubility determinations were carried out with D11B×2AH in water+co-solvents. For this analysis, stock solutions were prepared by dissolving D11B×2AH in a corresponding solvent. Stock solutions of D11B×2AH in DMSO were prepared at 25° C. and stock solutions of D11B×2AH in PEG-400 were prepared at 100° C.
Injection solutions in water (0.3 mg/ml) were prepared by dropwise addition of each stock solution to a required volume of vigorously stirred water.

[5] = Homo sapiens, HCT-116, HCT116 cells

In the case of c1ccc2c(Nc3ccc(Oc4ccc(Nc5nccc6ccccc56)cc4)cc3)nccc2c1 [Compound D278], the IC50 [1] is reported as over 5 µM and the melting point is reported as 110 to 112 °C.

c1ccc2c(Nc3ccc(Oc4ccc(Nc5ncnc6ccccc56)cc4)cc3)ncnc2c1 [Compound D281] showed an IC50 [1] of over 5 µM and a melting point of 124 to 125 °C.

With c1ccc2c(c1)Cc1c-2nc2ccccc2c1Nc1ccc(Oc2ccc(Nc3c4c(nc5ccccc35)-c3ccccc3C4)cc2)cc1 [Compound D275] the “Killing / inhibition of the growth of SF 295 human glioblastoma cells (in words)” value (from here on “Killing / inhibition”) [1] was “effective”, the IC50 [1] was 1.42 µM and the melting point was 114 to 115 °C.

In the case of Cc1cc(Nc2ccc(Oc3ccc(Nc4cc(C)nc5ccccc45)cc3)cc2)c2ccccc2n1 [Compound D288], the “Killing / inhibition” value [1] is reported as “effective”, the IC50 [1] is reported as 0.085 µM and the “Values of MTD40” value (normal C3H/HeN mice) is reported as 25 mg/kg.

For c1cc(Nc2ccc(Oc3ccc(Nc4ccncc4)cc3)cc2)ccn1 [Compound 244B], the melting point was 263 to 264 °C and the IC50 ([2]; HCT116 cells) was 3.34 µM.

With c1ccc2c(Nc3ccc(Oc4ccc(Nc5cnnc6ccccc56)cc4)cc3)cnnc2c1 [Compound D284] the IC50 [1] was over 5 µM and the melting point was 362 °C.

With c1ccc2c(Nc3ccc(Oc4ccc(Nc5ccnc6ccccc56)cc4)cc3)ccnc2c1 [Compound D245B] the “Killing / inhibition” value [1] was “effective”, the IC50 [1] was 0.133 µM and the IC50 ([2]; HCT116 cells) was 0.079 µM. For the same molecule, the IC50 [2, 5] was 0.122 µM and the “Values of MTD40” value (normal C3H/HeN mice) was 25 mg/kg.

In the case of c1ccc2c(Nc3ccc(Oc4ccc(Nc5c6ccccc6nc6ccccc56)cc4)cc3)c3ccccc3nc2c1 [D11Bx2AH 1, D11B digluconate], the “Solubility (mg/ml), 25° C.” value ([3]; D11Bx2AH salts, DMSO, listed as 1) is reported as 31 mg/mL, the “Solubility (mg/ml), 25° C.” value ([3]; D11Bx2AH salts, PEG-400, samples were dissolved at 100° C., listed as 1) is reported as over 10 mg/mL and the solubility ([3]; EtOH, 25 °C, organic solvent or mixture, D11Bx2AH salts, EtOH, read-out: Solubility (mg/ml), 25° C.) is reported as over 1 mg/mL. The solubility ([3]; PEG-400, organic solvent or mixture, PEG-400 (Table 16), heating to 100° C. was required, read-out: Solubility) was over 10 mg/mL, the solubility ([3]; buffer, 25 °C, pH 4, aqueous buffer, D11Bx2AH salts, Buffer (pH = 4), even at 100° C., read-out: Solubility (mg/ml), 25° C.) was over 0.5 mg/mL and the solubility ([3]; buffer, 25 °C, pH 6, aqueous buffer, D11Bx2AH salts, Buffer (pH = 6), even at 100° C., read-out: Solubility (mg/ml), 25° C.) was over 0.5 mg/mL. For the same molecule, the “State of the stock solution” value ([4]; digluconate (1) in DMSO, 22 mg/ml) was “clear”, the “State of the stock solution” value ([4]; digluconate (1) in DMSO, 31 mg/ml) was “clear” and the “State of the injection solution” value ([4]; digluconate (1) in H2O—DMSO 0.3 mg/ml, stock 22 mg/ml, DMSO 1.50 wt. %) was “clear”. For the same molecule, the “State of the injection solution” value ([4]; digluconate (1) in H2O—DMSO 0.3 mg/ml, stock 31 mg/ml, DMSO 1.06 wt. %) was “clear”.

For c1ccc2c(Nc3ccc(Oc4ccc(Nc5c6ccccc6nc6ccccc56)cc4)cc3)c3ccccc3nc2c1 [D11Bx2AH 4, D11B dilactabionate], the “Solubility (mg/ml), 25° C.” value ([3]; D11Bx2AH salts, DMSO, listed as 4) was 40 mg/mL, the “Solubility (mg/ml), 25° C.” value ([3]; D11Bx2AH salts, PEG-400, samples were dissolved at 100° C., listed as 4) was over 10 mg/mL and the “Solubility (mg/ml)” value ([3]; PEG-400 (Table 16), heating to 100° C. was required, listed as dilactabionate (4)) was >10^ mg/ml. The “State of the stock solution” value ([4]; dilactobionate (4) in DMSO, 20 mg/ml) was “clear”, the “State of the stock solution” value ([4]; dilactobionate (4) in DMSO, 40 mg/ml) was “clear” and the “State of the injection solution” value ([4]; dilactobionate (4) in H2O—DMSO 0.3 mg/ml, stock 20 mg/ml, DMSO 1.36 wt. %) was “clear”. For the same molecule, the “State of the injection solution” value ([4]; dilactobionate (4) in H2O—DMSO 0.3 mg/ml, stock 40 mg/ml, DMSO 0.68 wt. %) was “clear”.

Work on c1cc(Nc2ccc(Oc3ccc(Nc4ccncc4)cc3)cc2)ccn1 [Compound D244] yielded an IC50 [2, 5] of 4.22 µM.

For c1ccc2c(Nc3ccc(Oc4ccc(Nc5c6ccccc6nc6ccccc56)cc4)cc3)c3ccccc3nc2c1 [D11Bx2AH 7, D11B bis(3,4-dihydroxyphenylacetate)], the “Solubility (mg/ml), 25° C.” value ([3]; D11Bx2AH salts, DMSO, listed as 7) was 66 mg/mL, the “State of the stock solution” value ([4]; bis(3,4-dihydroxyphenylacetate) (7) in DMSO, 66 mg/ml) was “clear” and the “State of the injection solution” value ([4]; bis(3,4-dihydroxyphenylacetate) (7) in H2O—DMSO 0.3 mg/ml, DMSO 0.5 wt. %) was “clear”.

Work on c1ccc2c(Nc3ccc(Oc4ccc(Nc5c6ccccc6nc6ncccc56)cc4)cc3)c3cccnc3nc2c1 [Compound D254] yielded an IC50 ([2]; HCT116 cells) of 1.46 µM.

Molecule c1ccc2c(Nc3ccc(Oc4ccc(Nc5c6ccccc6nc6ncccc56)cc4)cc3)c3cccnc3nc2c1 [Compound 254B] has a melting point of 338 to 340 °C and an IC50 ([2]; HCT116 cells) of 0.722 µM.

For c1ccc2c(Nc3ccc(Oc4ccc(Nc5c6ccccc6nc6ccccc56)cc4)cc3)c3ccccc3nc2c1 [D11Bx2AH 6, D11B digallate], the “Solubility (mg/ml), 25° C.” value ([3]; D11Bx2AH salts, DMSO, listed as 6) was 325 mg/mL, the “Solubility (mg/ml)” value ([3]; PEG-400 (Table 16), heating to 100° C. was required, listed as digallate (6)) was 20^a mg/ml and the solubility ([3]; PEG-400, 25 °C, organic solvent or mixture, D11Bx2AH salts, PEG-400, samples were dissolved at 100° C., read-out: Solubility (mg/ml), 25° C.) was 20 mg/mL. The “State of the stock solution” value ([4]; digalate (6) in DMSO, 20 mg/ml) was “clear”, the “State of the stock solution” value ([4]; digalate (6) in DMSO, 39.9 mg/ml) was “clear” and the “State of the stock solution” value ([4]; digalate (6) in DMSO, 77 mg/ml) was “clear”. For the same molecule, the “State of the stock solution” value ([4]; digalate (6) in DMSO, 158 mg/ml) was “clear”, the “State of the stock solution” value ([4]; digalate (6) in DMSO, 325 mg/ml) was “clear” and the “State of the injection solution” value ([4]; digalate (6) in H2O—DMSO 0.3 mg/ml, stock 20 mg/ml, DMSO 1.65 wt. %) was “clear”. For the same molecule, the “State of the injection solution” value ([4]; digalate (6) in H2O—DMSO 0.3 mg/ml, stock 39.9 mg/ml, DMSO 0.83 wt. %) was “clear” and the “State of the injection solution” value ([4]; digalate (6) in H2O—DMSO 0.3 mg/ml, stock 325 mg/ml, DMSO 0.1 wt. %) was “prec”.

Work on c1nc(Nc2ccc(Oc3ccc(Nc4ncnc5[nH]cnc45)cc3)cc2)c2nc[nH]c2n1 [Compound D276] yielded an IC50 [1] of over 5 µM and a melting point of 372 °C.
